# Assay results as given in patent US20100196929A1, “STABILISATION OF THE PHENOTYPIC PROPERTIES OF ISOLATED PRIMARY CELLS” (Vrije Universiteit Brussel, priority 2007, published 2010).
# Key:
# [1] = tested on: EGF-stimulated adult primary rat hepatocytes; assay: Albumin secretion into culture medium (ELISA); type: cell-based; details: 48-72 hours of culture
# Method: (§1) Hepatocytes (viability >80%) are isolated from male Sprague-Dawley rats by a two-step collagenase perfusion. Cells (0.4×10^5 cells/cm^2) are cultured in MEM/M199 (3:1, v/v), containing 1 mg/ml BSA, 5 μg/ml bovine insulin, 2 mM L-glutamine, antibiotics (7.3 IU/ml benzyl penicillin, 50 μg/ml streptomycin sulphate, 50 μg/ml kanamycin monosulphate and 10 μg/ml sodium ampicillin) and 10% (v/v) fetal calf serum.
# After 4 h, medium was removed and serum-free medium, containing 0.5 μg/ml hydrocortisone and 50 μg/ml EGF, is added and renewed daily.
# 1) EGF-stimulated cultures, referred to as “positive control” or “control”. 2) EGF-stimulated cultures treated with DAC and/or in combination with 4-Me2N-BAVAH or AN-8.
# Medium samples were analyzed for their albumin content by an enzyme-linked immunosorbent assay (ELISA) according to Dunn et al. 1991 (Biotechnol Prog 7(3): 237-245).
# From the moment of seeding, adult primary rat hepatocytes, stimulated with EGF 4 hours after plating and constantly thereafter, were exposed to 50 μM 4-Me2N-BAVAH, 5 μM AN-8 or 500 μM DAC. Albumin secretion into the culture medium was measured between 48-72 hours of culture (FIG. 7A-C).
# From the moment of seeding, adult primary rat hepatocytes, stimulated with EGF 4 hours after plating and constantly thereafter, were exposed to a combination of 25 μM 4-Me2N-BAVAH and 50 μM DAC. Albumin secretion into the culture medium is measured between 48-72 hours of culture (FIG. 8A).
# [2] = tested on: EGF-stimulated adult primary rat hepatocytes; assay: DNA synthesis ([methyl-3H]-thymidine incorporation) in EGF-stimulated hepatocytes; type: cell-based; details: 72 hours; for dose-response of inhibition of DNA replication: increasing concentrations (4-Me2N-BAVAH 10-50 μM, AN-8 1-5 μM, DAC 1-500 μM)
# Method: as §1, with “were” for “are”
# (§2) After 4 h, medium was removed and serum-free medium, containing 0.5 μg/ml hydrocortisone and 50 μg/ml EGF, was added and renewed daily.
# DAC was dissolved in PBS, 4-Me2N-BAVAH and AN-8 were dissolved in ethanol, to a concentration of 100 mM for DAC and 4-Me2N-BAVAH and 25 mM for AN-8.
# (§3) 1) unstimulated cultures, referred to as “negative control” or “−EGF”, where hepatocytes are arrested at the mitogen-dependent R-point. 2) EGF-stimulated cultures, referred to as “positive control” or “+EGF”, in which EGF induces G1/S transition and mitosis. 3) EGF-stimulated cultures treated with DAC and/or in combination with 4-Me2N-BAVAH or AN-8.
# DNA replication was measured as incorporation of radioactively labeled thymidine into newly synthesized DNA. Cells were incubated with [methyl-3H]-thymidine (25 Ci/mmol) for 24 hours and harvested at 72 hours in ice-cold PBS, the time point where DNA synthesis in untreated EGF-stimulated cultures is maximal. DNA was precipitated with 30% trichloroacetic acid (TCA) overnight at 4° C. After centrifugation, cells were washed once with 10% TCA and twice with 5% TCA. The pellet was solved in formic acid and radioactively labeled thymidine was measured by liquid scintillation counting.
# From the moment of seeding, adult primary rat hepatocytes, stimulated with EGF 4 hours after plating and constantly thereafter, were exposed to different concentrations of 4-Me2N-BAVAH (10 μM, 15 μM, 20 μM, 25 μM and 50 μM), AN-8 (1 μM, 2.5 μM and 5 μM) or DAC (1 μM, 10 μM, 50 μM, 100 μM, 250 μM and 500 μM). [methyl-3H]-Thymidine incorporation was measured at 72 hours.
# From the moment of seeding, adult primary rat hepatocytes, stimulated with EGF 4 hours after plating and constantly thereafter, were exposed to different combinations of 4-Me2N-BAVAH and DAC or AN-8 and DAC:
# [methyl-3H]-Thymidine incorporation was measured at 72 hours.
# primary hepatocytes = details: cited from earlier work
# hepatoma cell lines = details: cited from earlier work
# CYP1A1 = CYP1A1 protein expression (immunoblot); type: cell-based, rat; details: increasing concentrations (DAC 1-500 μM, AN-8 1-5 μM); 72 h
# Method: as §1, with “were” for “are”, “two step” for “two-step”, “serum. After 4 h, medium was removed and serum-free medium, containing 0.5 μg/ml hydrocortisone and 50 μg/ml EGF, was added and renewed daily. DAC was dissolved in PBS, whereas AN-8 was dissolved in ethanol to a concentration of 100 mM for DAC and 25 mM for AN-8.” for “serum.”
# 1) EGF-stimulated cultures, referred to as C. 2) EGF-stimulated cultures, exposed to 0.02% v/v ethanol, referred to as S. 3) EGF-stimulated cultures treated with DAC and/or AN-8.
# At 72 h, cultured hepatocytes were harvested in ice-cold PBS. Cell pellets were lysed in homogenization buffer, sonicated and left for 1 hour on ice. After centrifugation, the protein concentration in the supernatant was determined. 50 μg proteins were separated by sodium dodecyl sulphate polyacrylamide gel electrophoresis (SDS-PAGE, 7.5%) and transferred to nitrocellulose membranes. Subsequently, membranes are immersed into Ponceau S to examine equal sample loading. […] Proteins were detected by using an enhanced chemiluminescence detection system. […]
# [3] = tested on: EGF-stimulated cultured hepatocytes; assay: Cell morphology by inverse light microscopy; type: cell-based, rat
# Method: as §1, with “were” for “are”
# as §2, §3
# Cell morphology was analyzed by inverse light microscopy, using an Optiphot Nikon Phase Contrast microscope.
Compound,dose-response of inhibition of DNA replication [2],apoptosis (primary hepatocytes),apoptosis (hepatoma cell lines),CYP1A1 protein expression vs untreated hepatocyte cultures (CYP1A1),other results
"CN(C)c1ccc(C(=O)NCCCCC(=O)NO)cc1 [4-Me2N-BAVAH, 5-(4-dimethylaminobenzoyl)-aminovaleric acid hydroxamide]",clear dose-response relationship,–,–,–,increase in albumin secretion compared to control cultures ([1]; 50 μM): 2.4 fold; inhibition of the DNA synthesis ([2]; 50 μM): complete inhibition
CCN(CC)Cc1ccc2cc(COC(=O)Nc3ccc(C(=O)NO)cc3)ccc2c1 [ITF2357],–,not,induce apoptosis,–,–
"CC(/C=C/C(=O)NO)=C\[C@@H](C)C(=O)c1ccc(N(C)C)cc1 [TSA, Trichostatin A]",–,not,induce apoptosis,–,–
"Nc1ncn([C@H]2C[C@H](O)[C@@H](CO)O2)c(=O)n1 [DAC, 5-aza-2′-deoxycytidine]",clear dose-response relationship,–,–,dose-dependent higher CYP1A1 protein expression,increase in albumin secretion compared to control cultures ([1]; 500 μM): 1.8 fold; inhibition of the DNA synthesis ([2]; 500 μM): complete inhibition; cell shape vs untreated control cultures with EGF alone ([3]; 500 μM): retained better the in vivo-like cuboidal shape; inhibition of proliferation (morphological appearance) vs untreated +EGF culture ([3]; 500 μM): clear inhibition of proliferation
O=C(CCCCCNC(=O)c1ccc(N2CCCC2)cc1)NO [AN-8],clear dose-response relationship,–,–,dose-dependent higher CYP1A1 protein expression,increase in albumin secretion compared to control cultures ([1]; 5 μM): 2.1 fold; inhibition of the DNA synthesis ([2]; 5 μM): complete inhibition; cell shape vs untreated control cultures with EGF alone ([3]; 5 μM): retained better the in vivo-like cuboidal shape; inhibition of proliferation (morphological appearance) vs untreated +EGF culture ([3]; 5 μM): clear inhibition of proliferation
CCCC(CCC)C(=O)O [valproate],–,not,induce apoptosis,–,–
